Measurements: EP1490080B1, “medical use of anthocyanins extracted from black rice” (Forbes Medi-Tech Inc., priority 2002, dated 2003)

Columns and labels:
[1] = system: supercoiled DNA; assay: Peroxyl radical (AAPH) induced supercoiled DNA scission, agarose gel electrophoresis; format: biochemical
Text: The effects of the anthocyanin composition in preventing DNA oxidation induced by oxidative radicals such as the peroxyl radical and hydroxyl radicals (site specific and non-site specific) were investigated. […] A similar effect was seen by the addition of cyanidin-3-glucoside and peonidin-3-glucoside in combination at various ratios Figure 11).
(§1) Both peroxyl radical and hydroxyl radical were applied in this test to evaluate the effect of black rice extract of the present invention in preventing DNA scission by 0.7% agarose gel electrophoresis with 0.5µg/ml ethidium bromide using TAE buffer (40mM Tris-acetate, 2mM EDTA, pH8.5). DNA bands were visualized by ultraviolet bench top transilluminator (UVP Inc., Upland, CA) and densities of bands were analyzed by LabWork software (UVP Inc., Upland, CA). The inhibition of DNA nicking was calculated as following equation: %Inh = (Dnative -Dsample)/(Dnative -Doxidative) × 100 [formula]
(§2) Dnative, Doxidative. Dsample represented the density of DNA without AAPH, DNA with AAPH and DNA with AAPH and test sample, respectively.

[2] = system: LPS-activated mouse macrophage cell RAW264.7; assay: Inhibition of nitric oxide (nitrite, Griess reagent) in LPS-activated macrophage cells; format: cell-based; settings: mean±SD, 1µg/ml LPS 24 hr
Description: Mouse macrophage cell RAW 264.7 (ATCC) was cultured in DMEM medium supplemented with 10% fetal bovine serum and antibiotics (100U/ml of penicillin and […]) at 37°C under 5% CO2, Cell was plated at a density of 2×10^5 cells/well into 96-well plates. After overnight growth when cells adhered to the bottom of well, various amount of the black rice extract in PBS and 1µg/ml bacterial lipopolysaccharide (LPS, Escheridchia coli, serotype 0111:B4) were added for another 24 hr. Medium was aliquot (100µl) to another 96-well plate where 100µl of Greiss reagent (1% sulfanilamide in 5% phosphoric acid and 0.1 % naphthylethylenediamine dihydrocholide in water, 1:1 v/v) was then added. Absorbance at 540nm was determined with ELISA plate reader. The concentration of nitrite was measured in according to standard curve obtained from the same procedure. The inhibition of nitric oxide was calculated according to the following equation: %Inhibition = (Abspositive -Abssample)/(Abspositive -Absnegative) × 100 [formula] of which, Abspositive, Absnegative, Abssample represent absorbance of cultural media with LPS, without LPS and sample with LPS.
Large amount of nitric oxide expression was made possible by using mouse macrophage cell line RAW264.7 co-incubated with bacterial LPS. The measurement of nitric oxide was indirectly measured by its metabolite nitrite in the supernatant of cell cultural media by Griess reagent.

[3] = system: supercoiled DNA; assay: DNA nicking induced by non-site specific hydroxyl radical, agarose gel electrophoresis; format: biochemical
Description: (§3) In this hydroxyl radical model, the hydroxyl radical was generated by ascorbic acid mediated Fenton reaction.
as §1, §2
(§4) In the present study, we adapted the concept of both non-site specific and site-specific hydroxyl radical and applied these to the DNA scission assays (Figures 10 and 11). It is evident that hydroxyl radical, no matter site-specific or non-site specific broke the integrity of supercoiled DNA strand (lane 2 of Figure 10).

[4] = system: supercoiled DNA; assay: DNA nicking induced by site-specific hydroxyl radical, agarose gel electrophoresis; format: biochemical
Description: as §3, §1, §2, §4

Row | Structure (SMILES) | protection on the DNA strand scission ([1]; 1µg/ml) [%] | protection on the DNA strand scission ([1]; 5µg/ml) [%] | Inhibition percentage of nitric oxide ([2]; 1µM) [%] | Inhibition percentage of nitric oxide ([2]; 10µM) [%] | Inhibition percentage of nitric oxide ([2]; 100µM) [%] | Inhibition percentage, Non-site specific ([3]; 0.17 µg/ml) [%] | Inhibition percentage, Non-site specific ([3]; 1.7 µg/ml) [%] | %Inh ([1]; 10µg/ml) [%] | recovery of peroxyl radical damage to the supercoiled DNA strand ([1]; Figure 10) | Inhibition percentage, Site specific ([4]; 0.17 µg/ml) [%] | Inhibition percentage, Site specific ([4]; 1.7 µg/ml) [%] | inhibition at 1 µM ([2]; Mus musculus, RAW264.7, 1µM, read-out: Inhibition percentage of nitric oxide) [%] | inhibition at 10 µM ([2]; Mus musculus, RAW264.7, 10µM, read-out: Inhibition percentage of nitric oxide) [%] | inhibition at 100 µM ([2]; Mus musculus, RAW264.7, 100µM, read-out: Inhibition percentage of nitric oxide) [%]
1 | COc1cc(-c2[o+]c3cc(O)cc(O)c3cc2O[C@@H]2O[C@H](CO)[C@@H](O)[C@H](O)[C@H]2O)ccc1O [Peonidin-3-glucoside, peonidin-3-O-glucoside] | 11.4 | 44.1 | 14.4±0.6 | 22.3±3.7 | 35.0±2.5 |  |  |  |  |  |  |  |  | 
2 | Cc1c(C)c2c(c(C)c1O)CCC(C)(C(=O)O)O2 (stereo not shown) [Trolox] |  |  |  |  |  | 44.0 | 80.8 | 100 | partial recovery | 25.7 | 61.0 |  |  | 
3 | OC[C@H]1O[C@@H](Oc2cc3c(O)cc(O)cc3[o+]c2-c2ccc(O)c(O)c2)[C@H](O)[C@@H](O)[C@@H]1O [Cyanidin-3-glucoside, cyanidin-3-O-glucoside] | 11.5 | 45.3 |  |  |  |  |  |  |  |  |  | 12.7 ± 2.7 | 23.1 ± 0.9 | 72.9 ± 4.8
